Patent publication US8932826B2, “Method for simultaneously determining multiple coagulation proteases” (Siemens Healthcare Diagnostics Products GmbH, priority 2010, dated 2015)

What was measured:
human factor Xa = human factor Xa (Homo sapiens, UniProt P00742); test: Simultaneous chromogenic determination of factor Xa inhibition in enriched normal plasma (Z-D-Leu-Gly-Arg-ANBA-methylamide, 405 nm); format: biochemical
Procedure: (§1) The following components were mixed to form one reaction: • 10 μl sample • 10 μl pool of normal human plasma • 40 μl substrate reagent (4 mM Z-D-Leu-Gly-Arg-ANBA-methylamide, 0.8 mM Tos-Gly-Pro-Arg-Basic Blue 49 in mannitol buffer, pH 4.0) • 100 μl factor Xa reagent (0.75 U/ml human factor Xa in 4.5 g/l TRIS, 9 g/l NaCl, 0.56 g/l EDTA, pH 8.0) • 100 μl thrombin reagent (5 U/ml bovine thrombin in 1.2 g/l TRIS, pH 8.2)
(§2) The sample used was normal human plasma. Factor Xa cleaves ANBA from the factor Xa-specific peptide substrate Z-D-Leu-Gly-Arg-ANBA-methylamide, increasing over time the optical density in the reaction at a wavelength of 405 nm. At the same time, thrombin cleaves Basic Blue 49 from the thrombin-specific peptide substrate Tos-Gly-Pro-Arg-Basic Blue 49, increasing over time the optical density in the reaction at a wavelength of 575 nm.
(§3) The measurements of the optical densities of the reaction at 405 nm and 575 nm and the evaluation of the reaction kinetics were carried out simultaneously in a fully automated Sysmex® CS-2000i coagulation analyzer. To measure the optical densities, the reaction was irradiated alternately with light of the aforementioned wavelengths, and the absorbance of the light, caused by the coloration of the reaction, was determined as a function of wavelength and time.
(§4) The increases in the reaction kinetics for normal plasma without inhibitors were defined as 100% of the respective enzyme activity.

bovine thrombin = bovine thrombin (Bos taurus, UniProt P00735); test: Simultaneous chromogenic determination of thrombin inhibition in enriched normal plasma (Tos-Gly-Pro-Arg-Basic Blue 49, 575 nm); format: biochemical
Procedure: as §1, §2, §3
Normal plasma was enriched with various concentrations of rivaroxaban, a specific factor Xa inhibitor, and/or of argatroban, a specific thrombin inhibitor, and used as a sample in a method as per example 1.
as §4

Chain of human factor Xa (P00742 235-488 limits assumed): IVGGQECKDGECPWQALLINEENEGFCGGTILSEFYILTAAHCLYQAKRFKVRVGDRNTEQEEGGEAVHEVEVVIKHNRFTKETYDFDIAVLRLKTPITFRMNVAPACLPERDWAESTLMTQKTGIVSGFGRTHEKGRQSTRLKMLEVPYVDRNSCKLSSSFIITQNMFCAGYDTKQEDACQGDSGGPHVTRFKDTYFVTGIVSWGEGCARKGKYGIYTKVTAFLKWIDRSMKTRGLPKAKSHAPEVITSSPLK
Chain of human factor Xa (P00742 41-179 partner limits assumed): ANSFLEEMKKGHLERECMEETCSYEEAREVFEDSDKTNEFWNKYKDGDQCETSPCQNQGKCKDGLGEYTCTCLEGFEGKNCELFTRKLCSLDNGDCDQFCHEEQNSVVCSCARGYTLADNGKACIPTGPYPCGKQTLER

Row | Compound | inhibition at 0.125 µg/mL (human factor Xa; normal plasma enriched with rivaroxaban 125 ng/ml, argatroban 0 ng/ml, read-out: F Xa inhibition [%]) [%] | inhibition at 0.25 µg/mL (human factor Xa; normal plasma enriched with rivaroxaban 250 ng/ml, argatroban 0 ng/ml, read-out: F Xa inhibition [%]) [%] | inhibition of factor Xa activity, in words (FIG. 1) (human factor Xa; samples having an increased rivaroxaban concentration, irrespective of the argatroban concentration) | inhibition at 0.25 µg/mL (bovine thrombin; normal plasma enriched with rivaroxaban 250 ng/ml, argatroban 0 ng/ml) [%] | inhibition at 0.375 µg/mL (human factor Xa; normal plasma enriched with argatroban 375 ng/ml, rivaroxaban 0 ng/ml, read-out: F Xa inhibition [%]) [%] | inhibition at 0.75 µg/mL (human factor Xa; normal plasma enriched with argatroban 750 ng/ml, rivaroxaban 0 ng/ml, read-out: F Xa inhibition [%]) [%] | inhibition at 0.375 µg/mL (bovine thrombin; normal plasma enriched with argatroban 375 ng/ml, rivaroxaban 0 ng/ml) [%] | inhibition at 0.75 µg/mL (bovine thrombin; normal plasma enriched with argatroban 750 ng/ml, rivaroxaban 0 ng/ml) [%] | inhibition of thrombin activity, in words (FIG. 2) (bovine thrombin; samples having an increased argatroban concentration, irrespective of the rivaroxaban concentration)
1 | O=C(NC[C@H]1CN(c2ccc(N3CCOCC3=O)cc2)C(=O)O1)c1ccc(Cl)s1 [Rivaroxaban, rivaroxaban] | 42 | 65 | increased factor Xa inhibition | 5 | – | – | – | – | –
2 | CC1CNc2c(cccc2S(=O)(=O)N[C@@H](CCCNC(=N)N)C(=O)N2CC[C@@H](C)C[C@@H]2C(=O)O)C1 (stereo partly drawn) [Argatroban, argatroban] | – | – | – | – | 0 | 0 | 18 | 31 | increased thrombin inhibition
